Reference: US4232121A, “Process for selecting methine dyes which inhibit cell growth” (Eastman Kodak Company, priority 1978, dated 1980)
Several values for one entry are separate records, joined by “and”; a condition that tells them apart may be missing. Identical values can stand only once. Like-named read-outs stand apart in the source and are kept apart here.

Tests used:
[1] = not told
[2] = test system: Micrococus luteus; assay: Inhibition of bacterial growth, filter paper technique; assay type: cell-based; conditions: Table VIII, 10^-3 molar, Gram +, 26° C./48 hrs; for zone of inhibition at 1000 µM: read-out: Area of Inhibition (diameter)
Experimental: (§1) Schleider and Schuell #740-E filter paper (12.7 mm diameter) was dipped in the dye solution, touched to the side of the beaker to removed excess dye, and placed in the center of the inoculated agar plates (prepared in (B) above). The plates were then incubated at 26° C. for […]. The plates were then examined to determine if bacterial growth had been affected by the dye-containing filter paper. With certain dyes bacterial growth was inhibited in a circular area around the filter paper. With other dyes no such area of inhibition was observed.
(§2) Cultures of various gram-negative and gram-positive bacteria were prepared in nutrient and Tryptic Soy Agar and plates were poured as described in Example 1. Methanolic solutions of cyanine dyes were prepared at 10^-3 molar and applied to the plates using the filter paper technique described in Example 1. Control plates were prepared in which the filter paper contained methanol or a 0.2 molar aqueous solution of phenol. The plates were then incubated at 26° C. or 37° C. for forty-eight hours.

[3] = test system: Bacillus cereus; assay: as above; assay type: cell-based; conditions: Table VIII, 10^-3 molar, Gram +, 26° C./48 hrs; for zone of inhibition at 1000 µM: Bacillus cereus, read-out: Area of Inhibition (diameter)
Experimental: as §1, §2

[4] = test system: Enterobacter aerogenes; assay: as above; assay type: cell-based; conditions: Table VIII; 10^-3 molar; Gram -; 37° C./48 hrs
Experimental: as §1, §2

[5] = test system: Bacillus subtilis; assay: as above; assay type: cell-based; conditions: Table VIII, 10^-3 molar, Gram +, 26° C./48 hrs, read-out: Area of Inhibition (diameter)
Experimental: as §1, §2

[6] = test system: Bacillus megaterium; assay: as above; assay type: cell-based; conditions: Table VIII, 10^-3 molar, Gram +, Tryptic Soy, 37° C./48 hrs; for zone of inhibition at 1000 µM: Priestia megaterium, read-out: Area of Inhibition (diameter)
Experimental: as §1, §2

[7] = test system: Alcaligenes faecalis; assay: as above; assay type: cell-based; conditions: Table VIII; 10^-3 molar; Gram -; 37° C./48 hrs
Experimental: as §1, §2

[8] = test system: Escherichia coli, Strain B; assay: as above; assay type: cell-based; conditions: Table VIII; 10^-3 molar; Gram -; 37° C./48 hrs
Experimental: as §1, §2

[9] = test system: Proteus vulgaris; assay: as above; assay type: cell-based; conditions: Table VIII; 10^-3 molar; Gram -; 37° C./48 hrs
Experimental: as §1, §2

[10] = test system: Micrococcus flavus; assay: as above; assay type: cell-based; conditions: Table VIII, 10^-3 molar, Gram +, 26° C./48 hrs; for zone of inhibition at 1000 µM: Micrococcus flavus, read-out: Area of Inhibition (diameter)
Experimental: as §1, §2

[11] = test system: Sea Urchin Eggs; assay: Inhibition of cell division in fertilized sea urchin eggs; assay type: cell-based; conditions: arbitrary scale 0 to 5, 5 most active; dye 10^-5 to 10^-6 molar, 60 minutes after fertilization
Experimental: To suspensions in filtered sea water of fertilized sea urchin eggs there was added, three minutes after fertilization, methanolic solutions of the dyes in an amount sufficient to yield a final concentration of dye of between 10^-5 and 10^-6 molar. The final concentration of methanol was, at a maximum 1×10^-4 molar. The eggs were visually observed at 60 minutes after fertilization to determine if cell division and the formation of mitotic apparatus had been inhibited. A rating was assigned based on the concentration of dye required to inhibit cell division and synthesis of DNA.

[12] = test system: Bacillus pumilus strain K-1; assay: Inhibition of bacterial growth, filter paper on inoculated agar plates; assay type: cell-based
Experimental: Nutrient broth was prepared by mixing 8 grams of BACTO dehydrated nutrient broth per liter of distilled water. […] Samples of the nutrient broth were then inoculated with Bacillus pumilus strain K-1 culture. […]
Nutrient agar was prepared by mixing 23 grams of BACTO nutrient agar per liter of distilled water. The nutrient agar was sterilized in the same way as the nutrient broth. After it has cooled to about 45° C. 250 ml of the nutrient agar solution was aeseptically inoculated with 5 ml of the Bacillus pumilus, K-1 culture prepared in (A), above. Plates of the inoculated nutrient agar were then poured and allowed to harden.
[…] To minimize possible photocatalyzed reactions of the dyes, all preparations were performed under yellow lights and all incubations were performed in the dark.
Schleider and Schuell #740-E filter paper (12.7 mm diameter) was dipped in the dye solution, touched to the side of the beaker to removed excess dye, and placed in the center of the inoculated agar plates (prepared in (B) above). […] The plates were then examined to determine if bacterial growth had been affected by the dye-containing filter paper. […]
Control plates were prepared in which the filter paper contained methanol or a 0.2 molar aqueous solution of phenol. […]

[13] = test system: the bacteria (various gram-negative and gram-positive); assay: Binding of dyes to the bacteria of Example 9; conditions: determined as in Example 8
Experimental: In addition, binding of dyes 7, 17 and 24 to the bacteria was determined as in Example 8.

[14] = test system: Bacillus pumilus (K-1)
Experimental: This can be accomplished by contacting a given concentration of the dye with the cells, removing the cells from the dye solution and then comparing the optical density (at λmax) of the remaining dye solution with a control containing the original concentration of the dye. The percentage decrease in optical density indicates the percentage of dye which has been bound to the cells.
The culture was collected by centrifugation at 5,000×g. for 10 minutes, and the resultant pellet was washed several times in cold 0.05 M potassium phosphate buffer, pH 7.0. The pellet was resuspended in the buffer solution to a final optical density of 1.0 at 620 nm as measured with a Bausch and Lomb Spectronic 20.
One-tenth ml of dye solution (1 mg/ml in methanol) was added to a tube containing 5 ml of cell suspension described above and a control tube containing 0.05 M potassium phosphate buffer, pH 7.0. All tubes were well agitated using a Vari-Whirl Mixer (Will Scientific Co.) and then centrifuged at 10,000×g. for 10 minutes.
The percent binding of dye to the cells for each dye, was determined by comparison of the density at λmax of the control supernatant sample with the density at λmax of the supernatant of the cell sample.

[15] = Reduction potential (ER) of the dye; conditions: list of dyes; vs. silver-silver chloride electrode, 20° C.
[16] = Oxidation potential (Eox) of the dye; assay type: physicochemical; conditions: Tables I, II, V, VI
[17] = Bacillus pumilus, K1, 48 h, Table VIII, 10^-3 molar, Nutrient, 37° C./48 hrs, read-out: Area of Inhibition (diameter)
[18] = Bacillus pumilus, K1, 72 h, Tables V and VI, 10^-3 molar, three days, read-out: Diameter of Inhibition
[19] = Bacillus pumilus, K1, Table II, 10^-4 molar, 26° C., forty-eight hours, read-out: Diameter of Inhibition
[20] = Bacillus pumilus, K1, Table IX, 10^-3 M, read-out: Diameter of Inhibition
[21] = Bacillus pumilus, K1, Table IX, 10^-4 M, read-out: Diameter of Inhibition
[22] = Table II, 10^-4 molar, 26° C., forty-eight hours

Structure (SMILES) | ER [1] | reduction potential (ER) [1] | zone of inhibition at 1000 µM [2] | zone of inhibition at 1000 µM [3] | Area of Inhibition (diameter) [4] | zone of inhibition at 1000 µM [5] | zone of inhibition at 1000 µM [6] | Area of Inhibition (diameter) [7] | Area of Inhibition (diameter) [8] | Area of Inhibition (diameter) [9] | zone of inhibition at 1000 µM [10] | Sea Urchin Eggs Activity [11] | Activity Rating [12] | zone of inhibition at 1000 µM [12, 17] | zone of inhibition at 1000 µM [12, 20] | binding to the bacteria (in words) [13] | % Bound [14] | also measured
CCN1C(=CC=Cc2oc3ccccc3[n+]2CC)Oc2ccccc21 [Dye 7] | -1.26 | -1.26 volts | 16 mm | 14 mm | No | 18 mm | 21 mm | No | No | No | 19 mm | +4 | 100 | 24 mm | 34 mm | found to bind | 31.7% | zone of inhibition at 1000 µM [12, 18]: 34 mm; zone of inhibition at 100 µM ([12]; Bacillus pumilus, K1, Table I, 10^-4 molar, 26° C., fifty hours, dark, read-out: Diameter of Inhibition): 22.5 mm; zone of inhibition at 100 µM [12, 19]: 25.5 mm; zone of inhibition at 100 µM ([12]; Bacillus pumilus, K1, Table III, 1.0 × 10^-4 M, read-out: Diameter of Inhibition): 26 mm; zone of inhibition at 200 µM ([12]; Bacillus pumilus, K1, Table III, 2.0 × 10^-4 M, read-out: Diameter of Inhibition): 29 mm; zone of inhibition at 25 µM ([12]; Bacillus pumilus, K1, Table III, 2.5 × 10^-5 M, read-out: Diameter of Inhibition): 14.5 mm; zone of inhibition at 50 µM ([12]; Bacillus pumilus, K1, Table III, 5.0 × 10^-5 M, read-out: Diameter of Inhibition): 20 mm; zone of inhibition at 100 µM [12, 21]: 25.5 mm; degree of inhibition compared with phenol (in words) ([12]; dye 7 at 1×10^-4 molar): same degree of inhibition as phenol at 2.13×10^-1 molar; times more active as an inhibitor than phenol ([12]; dye 7 at 1×10^-4 molar vs phenol at 2.13×10^-1 molar): ~2000 times
CCN1C(=Cc2oc3ccccc3[n+]2CC)Oc2ccccc21 [Dye 1] | -1.69 | -1.69 volts | 22 mm |  | No | 13 mm | 17 mm | No | No | No |  |  | 39 | 18 mm | 18 mm |  | 33.6% | Area of Inhibition (diameter) [3]: No; Area of Inhibition (diameter) [10]: No
CCN1C(=CC=Cc2sc3cc([N+](=O)[O-])ccc3[n+]2CC)Sc2cc([N+](=O)[O-])ccc21 [Dye 29] |  |  |  |  |  |  |  |  |  |  |  | 0 |  |  |  |  |  | reduction potential (ER) [15]: -0.58 volts; Diameter of Inhibition ([12]; Table IX, 10^-3 M): None; Activity Rating ([12]; Table IX, 10^-3 M, relative to phenol concentration giving equal diameter, Dye 7 = 100 (dye 20 relative to dye 17)): 0; % Bound ([14]; Table IX): 67.9%
Cn1c(-c2ccccc2)c(C=CC=C2C(c3ccccc3)=[N+](C)c3ccccc32)c2ccccc21 [Dye 33] |  | -0.20 volts |  |  | No | 13 mm |  | No | No | No |  | 0 | 0 |  |  |  | 83.7% | Eox [16]: > +1.00; Area of Inhibition (diameter) [2]: Slight; Area of Inhibition (diameter) [3]: No; Area of Inhibition (diameter) [6]: No; Area of Inhibition (diameter) [10]: No; Diameter of Inhibition ([12]; Table I, 10^-4 molar, 26° C., fifty hours, dark): None; Diameter of Inhibition [12, 22]: None; Diameter of Inhibition ([12]; Table IX, 10^-3 M): None; Diameter of Inhibition ([12]; Table IX, 10^-4 M): None; Area of Inhibition (diameter) ([12]; Table VIII, 10^-3 molar, Nutrient, 37° C./48 hrs): No
CCN1C(=CC=Cc2sc3ccccc3[n+]2CC)Sc2ccccc21 [Dye 17] | -1.00 | -1.00 volts | 14 mm | 13 mm | No | 15 mm | 14 mm | No | No | No | 15 mm | +4 | 18 and 31 | 17 mm | 19 mm | found to bind | 73.1% | effect upon diameter of inhibition as a result of changing the anion ([12]; 10^-3 molar, three days): no effect upon diameter of inhibition; zone of inhibition at 1000 µM [12, 18]: 19 mm; zone of inhibition at 100 µM [12, 19]: 16.5 mm; zone of inhibition at 100 µM [12, 21]: 16.5 mm
CCN1C(=CC=Cc2n(CC)c3nc4ccccc4nc3[n+]2CC)N(CC)c2nc3ccccc3nc21 [Dye 24] |  | -0.79 volts | 14 mm | 13.5 mm | Slight | 13 mm | 14 mm | No | No | No | 13 mm | 0 |  | 13 mm | 13 mm | found to bind | 32.8% | Eox [16]: +1.00; Diameter of Inhibition [12, 22]: None; Diameter of Inhibition ([12]; Table IX, 10^-4 M): None
CCN1C(=CC=CC=Cc2oc3ccccc3[n+]2CC)Oc2ccccc21 [Dye 21] | -.83 | -0.83 volts | 14 mm | 14 mm | No | 16 mm | 18 mm | No | No | No | 18 mm |  | 66 | 21 mm | 21 mm |  | 99.4% | 
